In patent US9745261B2, “Inhibitors of the MITF molecular pathway” (THE GENERAL HOSPITAL CORPORATION, priority 2013, dated 2017):

Columns and labels:
[1] = tested on: CDK2; assay: qPCR assay for CDK2 expression in SK-MEL-5 cells; assay type: cell-based, human; conditions: Homo sapiens; SK-MEL-5 melanoma cells, up to 35 μM
Description: SK-MEL-5 cells were treated with compounds for 24 hours. Next, cells were lysed with DNase I (Ambion, from Cell to CT Lysis Mix). Lysed cells were delivered to a RT-PCR plate (Ambion, Cells to CT RT Mix) and the plates were then processed for reverse transcription to create cDNA. qPCR was performed by transferring cDNA from the RT-PCR plate to a qPCR plate containing PCR master mix (Roche, Probes Master), FAM Taqman probe/primer set for the target gene (human MITF, Applied Biosystem, 4331182 Hs01117294_m1), VIC Taqman probe/primer set for a house keeping gene (human GAPDH, Applied Biosystems C10228) and water. qPCR plates were cycled using a real-time PCR instrument (Roche, Light Cycler). Using the instrument software, a cycle call was generated when each well enters log phase amplification (Ct). The delta Ct value was determined by subtracting the Ct value of the control gene (GAPDH) from the Ct value of the target gene (MITF) in each well. The delta delta Ct value of each compound treatment was determined by averaging the delta Ct values of the mock well on each plate and subtracting that average from the delta Ct value of each compound well. […]
• 10. […] The RT assay plates are incubated at 37° C. for 1 hour and the reverse transcriptase is inactivated by incubating the plates for 1 minute at 95° C. • 13. cDNA is stored at −80° C. until ready for qPCR analysis […]

[2] = tested on: MLANA; assay: qPCR assay for MLANA expression in SK-MEL-5 cells; assay type: cell-based; conditions: Homo sapiens; SK-MEL-5 melanoma cells, up to 35 μM
[3] = tested on: DCT; assay: qPCR assay for DCT expression in SK-MEL-5 cells; assay type: cell-based; conditions: Homo sapiens; SK-MEL-5 melanoma cells, up to 35 μM
[4] = target: T1, Tachykinin NK1 (Homo sapiens, UniProt P25103); assay: Radioligand binding, Tachykinin NK1
T1 construct: Eurofins Panlabs
T1 sequence (P25103 whole entry): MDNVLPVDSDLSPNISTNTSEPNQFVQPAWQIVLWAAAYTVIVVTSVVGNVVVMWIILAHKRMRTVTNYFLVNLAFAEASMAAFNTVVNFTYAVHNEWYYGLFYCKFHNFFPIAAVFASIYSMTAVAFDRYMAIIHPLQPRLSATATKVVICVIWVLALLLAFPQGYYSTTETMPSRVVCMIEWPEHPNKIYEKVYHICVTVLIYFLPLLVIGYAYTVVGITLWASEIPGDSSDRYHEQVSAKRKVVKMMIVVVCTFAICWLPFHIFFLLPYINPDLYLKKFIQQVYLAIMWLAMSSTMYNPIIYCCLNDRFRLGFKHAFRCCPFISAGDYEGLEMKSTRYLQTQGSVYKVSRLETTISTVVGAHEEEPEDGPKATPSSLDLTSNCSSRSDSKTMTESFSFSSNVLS

[5] = target: T2, Muscarinic M2 (Homo sapiens, UniProt P08172); assay: Radioligand binding, Muscarinic M2
T2 construct: Eurofins Panlabs, Inc

[6] = target: T3, Serotonin (5-Hydroxytryptamine) 5-HT2B (Homo sapiens, UniProt P41595); assay: Radioligand binding, Serotonin (5-Hydroxytryptamine) 5-HT2B
T3 construct: Eurofins Panlabs
T3 sequence (P41595 whole entry): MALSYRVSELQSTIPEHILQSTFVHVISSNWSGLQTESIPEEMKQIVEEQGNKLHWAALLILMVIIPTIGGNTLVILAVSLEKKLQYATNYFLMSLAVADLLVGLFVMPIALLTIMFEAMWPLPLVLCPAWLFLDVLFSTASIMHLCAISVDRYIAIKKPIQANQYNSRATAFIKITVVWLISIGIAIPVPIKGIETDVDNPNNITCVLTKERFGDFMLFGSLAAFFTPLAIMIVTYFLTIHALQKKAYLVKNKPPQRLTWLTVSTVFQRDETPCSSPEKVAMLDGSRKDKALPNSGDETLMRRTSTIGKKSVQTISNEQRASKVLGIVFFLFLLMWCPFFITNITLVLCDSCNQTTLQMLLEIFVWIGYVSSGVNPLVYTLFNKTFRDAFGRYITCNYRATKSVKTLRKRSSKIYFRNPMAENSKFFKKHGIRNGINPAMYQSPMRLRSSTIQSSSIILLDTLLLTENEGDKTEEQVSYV

[7] = target: T4, Histamine H3 (Homo sapiens, UniProt Q9Y5N1); assay: Radioligand binding, Histamine H3
T4 construct: Eurofins Panlabs, Inc
T4 sequence (Q9Y5N1 whole entry): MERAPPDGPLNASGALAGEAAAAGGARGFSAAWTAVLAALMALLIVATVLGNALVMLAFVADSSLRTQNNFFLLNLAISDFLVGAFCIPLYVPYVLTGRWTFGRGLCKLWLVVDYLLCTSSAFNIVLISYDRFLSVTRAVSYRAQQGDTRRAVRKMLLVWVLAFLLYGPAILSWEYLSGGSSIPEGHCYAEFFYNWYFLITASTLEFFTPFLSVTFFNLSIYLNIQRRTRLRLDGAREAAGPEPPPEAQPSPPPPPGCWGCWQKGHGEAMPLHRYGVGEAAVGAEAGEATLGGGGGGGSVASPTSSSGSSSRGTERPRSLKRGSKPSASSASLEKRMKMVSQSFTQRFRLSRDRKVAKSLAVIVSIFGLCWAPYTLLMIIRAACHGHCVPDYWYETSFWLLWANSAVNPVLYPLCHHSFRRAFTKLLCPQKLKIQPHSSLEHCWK

[8] = target: T5, Muscarinic M1 (Homo sapiens, UniProt P11229); assay: Radioligand binding, Muscarinic M1
T5 construct: Eurofins Panlabs, Inc

[9] = target: T6, Transporter, Dopamine (DAT) (Homo sapiens, UniProt Q01959); assay: Radioligand binding, Transporter, Dopamine (DAT)
T6 construct: Eurofins Panlabs
T6 sequence (Q01959 whole entry): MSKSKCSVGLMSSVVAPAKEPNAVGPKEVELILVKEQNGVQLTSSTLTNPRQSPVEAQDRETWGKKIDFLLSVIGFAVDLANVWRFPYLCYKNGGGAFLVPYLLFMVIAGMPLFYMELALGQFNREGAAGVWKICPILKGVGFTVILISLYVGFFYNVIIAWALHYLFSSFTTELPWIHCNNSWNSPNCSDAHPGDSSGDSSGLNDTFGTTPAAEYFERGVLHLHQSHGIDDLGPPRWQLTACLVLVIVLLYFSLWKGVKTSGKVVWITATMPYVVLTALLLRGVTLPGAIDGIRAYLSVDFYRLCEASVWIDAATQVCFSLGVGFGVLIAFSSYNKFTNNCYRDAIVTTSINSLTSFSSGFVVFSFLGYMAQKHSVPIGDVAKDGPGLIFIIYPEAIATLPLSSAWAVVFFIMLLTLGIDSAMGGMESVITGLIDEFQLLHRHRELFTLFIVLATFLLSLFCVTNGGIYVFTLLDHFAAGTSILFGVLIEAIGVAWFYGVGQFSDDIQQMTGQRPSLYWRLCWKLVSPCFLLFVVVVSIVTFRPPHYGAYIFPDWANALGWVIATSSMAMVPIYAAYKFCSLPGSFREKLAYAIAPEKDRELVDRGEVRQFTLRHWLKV

[10] = target: T7, Histamine H2 (Homo sapiens, UniProt P25021); assay: Radioligand binding, Histamine H2
T7 construct: Eurofins Panlabs, Inc
T7 sequence (P25021 whole entry): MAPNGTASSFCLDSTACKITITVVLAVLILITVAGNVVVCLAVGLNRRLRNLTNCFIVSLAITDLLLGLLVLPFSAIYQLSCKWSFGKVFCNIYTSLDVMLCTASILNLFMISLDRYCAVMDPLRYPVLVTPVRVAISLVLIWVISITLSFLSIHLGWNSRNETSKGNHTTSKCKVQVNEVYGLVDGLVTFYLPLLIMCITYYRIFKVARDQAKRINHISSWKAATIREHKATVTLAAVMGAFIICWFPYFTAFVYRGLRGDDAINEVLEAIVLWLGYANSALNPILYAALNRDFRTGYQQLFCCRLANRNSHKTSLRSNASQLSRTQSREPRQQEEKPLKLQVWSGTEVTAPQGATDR

[11] = target: T8, Transporter, Serotonin (5-Hydroxytryptamine) (SERT) (Homo sapiens, UniProt P31645); assay: Radioligand binding, Transporter, Serotonin (5-Hydroxytryptamine) (SERT)
T8 construct: Eurofins Panlabs

[12] = target: T9, Calcium Channel N-Type (Rattus norvegicus, UniProt Q02294); assay: Radioligand binding, Calcium Channel N-Type
T9 construct: Eurofins Panlabs, Inc. (contract assay)

[13] = target: T10, Glucocorticoid (Homo sapiens, UniProt P04150); assay: Radioligand binding, Glucocorticoid
T10 construct: Eurofins Panlabs, Inc
T10 sequence (P04150 whole entry): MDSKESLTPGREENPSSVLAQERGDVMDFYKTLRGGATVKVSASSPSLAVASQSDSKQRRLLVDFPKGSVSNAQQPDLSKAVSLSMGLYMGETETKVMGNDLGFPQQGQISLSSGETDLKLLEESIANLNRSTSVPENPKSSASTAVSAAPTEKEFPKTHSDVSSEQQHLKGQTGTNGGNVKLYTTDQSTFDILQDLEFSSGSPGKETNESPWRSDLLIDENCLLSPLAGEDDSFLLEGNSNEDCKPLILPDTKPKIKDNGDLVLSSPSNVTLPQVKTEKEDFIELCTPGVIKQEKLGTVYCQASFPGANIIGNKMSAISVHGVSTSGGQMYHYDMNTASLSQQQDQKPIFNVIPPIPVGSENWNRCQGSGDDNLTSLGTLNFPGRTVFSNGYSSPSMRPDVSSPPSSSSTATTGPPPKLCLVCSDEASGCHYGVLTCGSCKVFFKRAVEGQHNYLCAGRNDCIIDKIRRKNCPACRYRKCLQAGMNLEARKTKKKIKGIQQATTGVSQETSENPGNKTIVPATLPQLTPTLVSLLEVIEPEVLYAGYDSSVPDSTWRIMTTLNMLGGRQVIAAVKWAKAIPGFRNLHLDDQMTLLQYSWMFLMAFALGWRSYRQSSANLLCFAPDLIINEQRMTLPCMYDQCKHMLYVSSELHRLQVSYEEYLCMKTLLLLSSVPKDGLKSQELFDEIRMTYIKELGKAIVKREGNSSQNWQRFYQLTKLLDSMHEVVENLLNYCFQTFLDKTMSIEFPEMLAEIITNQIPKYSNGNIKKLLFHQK

[14] = target: T11, Sigma σ1 (Homo sapiens, UniProt Q99720); assay: Radioligand binding, Sigma σ1
T11 construct: Eurofins Panlabs

[15] = target: T12, Dopamine D3 (Homo sapiens, UniProt P35462); assay: Radioligand binding, Dopamine D3
T12 construct: Eurofins Panlabs, Inc. (contract assay)
T12 sequence (P35462 whole entry): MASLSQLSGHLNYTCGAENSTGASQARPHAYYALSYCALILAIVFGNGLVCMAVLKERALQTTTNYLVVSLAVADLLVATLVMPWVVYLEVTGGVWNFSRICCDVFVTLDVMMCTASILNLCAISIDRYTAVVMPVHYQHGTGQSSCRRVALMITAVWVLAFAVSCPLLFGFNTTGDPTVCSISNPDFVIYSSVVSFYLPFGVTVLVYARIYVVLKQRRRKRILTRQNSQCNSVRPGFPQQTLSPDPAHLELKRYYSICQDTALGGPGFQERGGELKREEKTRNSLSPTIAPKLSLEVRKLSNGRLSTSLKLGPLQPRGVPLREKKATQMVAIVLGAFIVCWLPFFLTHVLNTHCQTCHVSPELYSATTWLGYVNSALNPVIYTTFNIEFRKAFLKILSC

[16] = target: T13, Serotonin (5-Hydroxytryptamine) 5-HT3 (Homo sapiens, UniProt P46098); assay: Radioligand binding, Serotonin (5-Hydroxytryptamine) 5-HT3
T13 construct: Eurofins Panlabs
T13 sequence (P46098 24-478): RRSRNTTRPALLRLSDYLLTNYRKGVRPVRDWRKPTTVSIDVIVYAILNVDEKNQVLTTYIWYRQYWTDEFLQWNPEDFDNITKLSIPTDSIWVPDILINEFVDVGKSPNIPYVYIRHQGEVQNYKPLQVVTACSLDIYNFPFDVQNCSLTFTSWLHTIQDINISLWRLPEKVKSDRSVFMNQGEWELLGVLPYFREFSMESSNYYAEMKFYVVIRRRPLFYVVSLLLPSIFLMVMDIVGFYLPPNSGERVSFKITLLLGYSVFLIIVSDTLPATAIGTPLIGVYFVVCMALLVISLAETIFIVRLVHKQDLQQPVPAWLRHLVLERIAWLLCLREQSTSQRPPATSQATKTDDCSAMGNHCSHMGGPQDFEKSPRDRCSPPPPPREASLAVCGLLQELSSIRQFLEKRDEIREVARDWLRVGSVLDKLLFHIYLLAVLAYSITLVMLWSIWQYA

[17] = target: T14, Opiate δ1 (OP1, DOP) (Homo sapiens, UniProt P41143); assay: Radioligand binding, Opiate δ1 (OP1, DOP)
T14 construct: Eurofins Panlabs, Inc
T14 sequence (P41143 whole entry): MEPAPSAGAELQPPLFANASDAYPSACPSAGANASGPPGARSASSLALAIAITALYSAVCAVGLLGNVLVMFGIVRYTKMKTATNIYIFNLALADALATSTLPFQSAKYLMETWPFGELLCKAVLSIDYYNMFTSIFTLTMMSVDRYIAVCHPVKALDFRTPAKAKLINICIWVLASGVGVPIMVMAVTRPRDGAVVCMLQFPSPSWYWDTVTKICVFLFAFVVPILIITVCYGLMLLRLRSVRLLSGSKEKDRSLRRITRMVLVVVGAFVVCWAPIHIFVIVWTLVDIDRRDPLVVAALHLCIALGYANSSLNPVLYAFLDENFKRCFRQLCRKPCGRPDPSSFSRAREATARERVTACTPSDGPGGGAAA

[18] = target: T15, Interleukin IL-1 (Mus musculus, UniProt P13504); assay: Radioligand binding, Interleukin IL-1
T15 construct: Eurofins Panlabs, Inc
T15 sequence (P13504 20-576): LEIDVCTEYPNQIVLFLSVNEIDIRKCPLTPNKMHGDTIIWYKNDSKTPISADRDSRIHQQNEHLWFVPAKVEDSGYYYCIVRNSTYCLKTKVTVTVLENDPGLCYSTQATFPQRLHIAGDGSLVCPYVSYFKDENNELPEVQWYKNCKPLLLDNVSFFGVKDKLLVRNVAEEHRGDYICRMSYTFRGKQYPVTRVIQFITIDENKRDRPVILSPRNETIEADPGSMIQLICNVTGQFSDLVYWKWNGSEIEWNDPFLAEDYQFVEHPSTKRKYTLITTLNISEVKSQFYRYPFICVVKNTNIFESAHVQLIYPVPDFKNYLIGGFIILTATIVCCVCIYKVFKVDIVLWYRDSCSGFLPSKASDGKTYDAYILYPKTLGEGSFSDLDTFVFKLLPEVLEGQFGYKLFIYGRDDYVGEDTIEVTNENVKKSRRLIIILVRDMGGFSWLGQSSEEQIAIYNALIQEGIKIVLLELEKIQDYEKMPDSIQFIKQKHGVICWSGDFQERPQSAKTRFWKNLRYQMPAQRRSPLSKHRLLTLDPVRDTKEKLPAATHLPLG

Compound | EC50 [1] | EC50 [2] | EC50 [3] | inhibition at 10 µM [4] | inhibition at 10 µM [5] | inhibition at 10 µM [6] | inhibition at 10 µM [7] | inhibition at 10 µM [8] | inhibition at 10 µM [9] | inhibition at 10 µM [10] | inhibition at 10 µM [11] | inhibition at 10 µM [12] | inhibition at 10 µM [13] | inhibition at 10 µM [14] | inhibition at 10 µM [15] | inhibition at 10 µM [16] | inhibition at 10 µM [17] | inhibition at 10 µM [18]
NS(=O)(=O)c1ccc(NC2=CC(=O)c3ccccc3C2=O)cc1 [4-((1,4-dioxo-1,4-dihydronaphthalen-2-yl)amino)benzenesulfonamide] | 500 nM | 500 nM | 100 nM |  |  |  |  |  |  |  |  |  |  |  |  |  |  | 
NS(=O)(=O)c1ccc(NC2=CC(=O)c3ccccc3C2=O)cc1 [Example 1, 4-((1,4-Dioxo-1,4-dihydronaphthalen-2-yl)amino)benzenesulfonamide] |  |  |  | 37% | 15% | 37% | -5% | 7% | 2% | -5% | -5% | -3% | 5% | 15% | 9% | 5% | -6% | 6%
